Results taken from patent US7151105B2, “Inhibitors of Hepatitis C virus RNA-dependent RNA polymerase, and compositions and treatments using the same” (Agouron Pharmaceuticals, Inc., priority 2004, dated 2006).

Molecular target: T1, Recombinant HCV polymerase (Hepatitis C virus genotype 1b, UniProt P26663)
T1 construct: Recombinant HCV polymerase was tested for its ability to perform primer/template-directed transcription
Assay: biochemical
Settings: inhibition of polymerase-directed transcription; 30 min at 30° C; 30 nM enzyme; cpm data in triplicate
Outline: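 Primer/template-directed RNA synthesis by 2.5 pmol HCV polymerase on poly(rC)300/biotin-dG12 with 1 μM GTP plus α-32P-GTP, in pH 7.2 Tris buffer with 10 mM MgCl2, for 30 min at 30 °C. Products were filter-captured and counted, with 1% DMSO final. IC50 was fitted from triplicate cpm; percent inhibition was reported where IC50 was impractical.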

T1 sequence (P26663 2420-3010): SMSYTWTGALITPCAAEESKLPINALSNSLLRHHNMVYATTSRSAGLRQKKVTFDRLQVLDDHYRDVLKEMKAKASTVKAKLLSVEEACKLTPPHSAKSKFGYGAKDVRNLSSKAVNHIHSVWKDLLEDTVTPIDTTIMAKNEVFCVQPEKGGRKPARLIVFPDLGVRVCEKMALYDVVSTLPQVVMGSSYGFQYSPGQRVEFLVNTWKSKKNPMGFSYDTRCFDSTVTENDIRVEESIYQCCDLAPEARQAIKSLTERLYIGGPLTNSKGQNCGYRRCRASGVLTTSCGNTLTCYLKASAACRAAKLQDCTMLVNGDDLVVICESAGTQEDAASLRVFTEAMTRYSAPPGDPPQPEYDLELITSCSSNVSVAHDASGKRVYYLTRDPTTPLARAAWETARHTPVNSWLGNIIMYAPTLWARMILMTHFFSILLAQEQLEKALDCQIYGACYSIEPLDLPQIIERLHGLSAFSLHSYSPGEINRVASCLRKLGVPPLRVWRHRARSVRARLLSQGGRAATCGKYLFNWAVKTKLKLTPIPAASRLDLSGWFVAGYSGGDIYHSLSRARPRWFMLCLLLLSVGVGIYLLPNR

SMILES	IC50
CCn1cc(CC2=C(O)CC(CCc3ccc(C(C)(C)C#N)c(F)c3)(C3CCCC3)OC2=O)cn1 (stereo not shown) [A(85), 2-[4-(2-{2-Cyclopentyl-5-[(1-ethyl-1H-pyrazol-4-yl)methyl]-4-hydroxy-6-oxo-3,6-dihydro-2H-pyran-2-yl}ethyl)-2-fluorophenyl]-2-methylpropanenitrile]	83 nM
Cn1cc(CC2=C(O)CC(CCc3ccc(C(C)(C)C#N)c(F)c3)(C3CCCC3)OC2=O)cn1 (stereo not shown) [A(86), 2-[4(2-{2-Cyclopentyl-hydroxy-5[(1-methyl-1H-pyrazol-4-yl)methyl]-6-oxo-3,6-dihydro-2H-pyran-2-yl}ethyl)-2-fluorophenyl]-2-methylpropanenitrile]	86 nM
C[C@@H](NS(=O)(=O)CC(F)(F)F)c1ccc(CCC2(C3CCCC3)CC(=O)CC(=O)O2)cc1 (stereo partly drawn) [A(88), N-((1R)-1-{4-[2-(2-cyclopentyl-4,6-dioxotetrahydro-2H-pyran-2-yl)ethyl]phenyl}ethyl)-2,2,2-trifluoroethanesulfonamide]	27000 nM
C[C@@H](NC(=O)OC(C)(C)C)c1ccc(CCC2(C3CCCC3)CC(=O)CC(=O)O2)cc1 (stereo partly shown) [A(90)]	43000 nM
Cc1cc(C)n2nc(CC3=C(O)CC(CCc4ccc([C@@H](C)NC(=O)OC(C)(C)C)cc4)(C4CCCC4)OC3=O)nc2n1 (stereo partly drawn) [A(91), tert-Butyl(1R)-1-[4-(2-{2-cyclopentyl-5-[(5,7-dimethyl[1,2,4]triazolo[1,5-a]pyrimidin-2-yl)methyl]-4-hydroxy-6-oxo-3,6-dihydro-2H-pyran-2-yl}ethyl)phenyl]ethylcarbamate]	160 nM
Cc1cc(C)n2nc(CC3=C(O)CC(CCc4ccc([C@@H](C)N)cc4)(C4CCCC4)OC3=O)nc2n1 (stereo partly drawn) [A(92), 6-(2-{4-[(1R)-1-Aminoethyl]phenyl}ethyl)-6-cyclopentyl-3-[(5,7-dimethyl[1,2,4]triazolo[1,5-a]pyrimidin-2-yl)methyl]-hydroxy-5,6-dihydro-2H-pyran-2-one]	300 nM
COc1cc(O)c(C(C)=O)cc1CCC1(C2CCCC2)CC(=O)CC(=O)O1 (stereo not shown) [A(99), 6-[2-(5-Acetyl-4-hydroxy-2-methoxyphenyl)ethyl]-6-cyclopentyldihydro-2H-pyran-2,4(3H)-dione]	8400 nM
Cc1c(CC2=C(O)CC(CCc3ccc(C(C)(C)C#N)c(F)c3)(C3CCCC3)OC2=O)c(=O)n(-c2ccccc2)n1C (stereo not shown) [A(100), 2-[4-(2-{2-Cyclopentyl-5-[(1,5-dimethyl-3-oxo-2-phenyl-2,3-dihydro-1H-pyrazol-4-yl)methyl]-4-hydroxy-6-oxo-3,6-dihydro-2H-pyran-2-yl}ethyl)-2-fluorophenyl]-2-methylpropanenitrile]	79 nM
CCc1cc(CCC2(C3CCCC3)CC(=O)CC(=O)O2)ccc1CC#N (stereo not shown) [A(102), {4-[2-(2-Cyclopentyl-4,6-dioxotetrahydro-2H-pyran-2-yl)ethyl]-2-ethylphenyl}acetonitrile]	840 nM
CCc1cc(CCC2(C3CCCC3)CC(=O)CC(=O)O2)ccc1NS(C)(=O)=O (stereo not shown) [A(105), N-{4-[2-(2-cyclopentyl-4,6-dioxotetrahydro-2H-pyran-2-yl)ethyl]-2-ethylphenyl}methanesulfonamide]	250 nM

These reach a lower IC50. Values come first.

IC50	SMILES
72 nM	Cc1nc(CC2=C(O)CC(CCc3ccc(C(C)(C)C#N)c(F)c3)(C3CCCC3)OC2=O)n(C)n1 (stereo not shown) [A(84), 2-[4-(2-{2-Cyclopentyl-5-[(1,3-dimethyl-1H-1,2,4-triazol-5-yl)methyl]-4-hydroxy-6-oxo-3,6-dihydro-2H-pyran-2-yl}ethyl)-2-fluorophenyl]-2-methylpropanenitrile]
40 nM	CCn1cc(CC2=C(O)CC(CCc3ccc(C(C)(C)C#N)c(F)c3)(C3CCCC3)OC2=O)c(C)n1 (stereo not shown) [A(95), 2-[4-(2-{2-Cyclopentyl-5-[(1-ethyl-3-methyl-1H-pyrazol-4-yl)methyl]-4-hydroxy-6-oxo-3,6-dihydro-2H-pyran-2-yl}ethyl)-2-fluorophenyl]-2-methylpropanenitrile]
27 nM	Cc1c(CC2=C(O)CC(CCc3ccc(C(C)(C)C#N)c(F)c3)(C3CCCC3)OC2=O)cnn1C (stereo not shown) [A(94), 2-[4-(2-{2-Cyclopentyl-5-[(1,5-dimethyl-1H-pyrazol-4-yl)methyl]-4-hydroxy-6-oxo-3,6dihydro-2H-pyran-2-yl}ethyl)-2-fluorophenyl]-2-methylpropanenitrile]
11 nM	Cn1nc(C(F)(F)F)c(CC2=C(O)CC(CCc3ccc(C(C)(C)C#N)c(F)c3)(C3CCCC3)OC2=O)c1Cl (stereo not shown) [A(97), 2-{4-[2-(5-{[5-Chloro-1-methyl-3-(trifluoromethyl)-1H-pyrazol-4-yl]methyl}-2-cyclopentyl-4-hydroxy-6-oxo-3,6-dihydro-2H-pyran-2-yl)ethyl]-2-fluorophenyl}-2-methylpropanenitrile]
11 nM	COc1cc(O)c(C(C)=O)cc1CCC1(C2CCCC2)CC(O)=C(Cc2nc3nc(C)cc(C)n3n2)C(=O)O1 (stereo not shown) [A(98), 6-[2-(5-Acetyl-4-hydroxy-2-methoxyphenyl)ethyl]-cyclopentyl-3-[(5,7-dimethyl[1,2,4]triazolo[1,5-a]pyrimidin-2-yl)methyl]-4-hydroxy-5,6-dihydro-2H-pyran-2-one]
9 nM	Cc1nn(C)c(C)c1CC1=C(O)CC(CCc2ccc(C(C)(C)C#N)c(F)c2)(C2CCCC2)OC1=O (stereo not shown) [A(89)]
8 nM	CCc1cc(CCC2(C3CCCC3)CC(O)=C(Cc3nc4nc(C)cc(C)n4n3)C(=O)O2)ccc1CC#N (stereo not shown) [A(101), [4-(2-{2-Cyclopentyl-5-[(5,7-dimethyl[1,2,4]triazolo[1,5-a]pyrimidin-2-yl)methyl]-4-hydroxy-6-oxo-3,6-dihydro-2H-pyran-2-yl}ethyl)-2-ethylphenyl]acetonitrile]
6 nM	Cc1cc(C)n2nc(CC3=C(O)CC(CCc4ccc(C5(C#N)CC5)cc4)(C4CCCC4)OC3=O)nc2n1 (stereo not shown) [A(93), 1-[4(2-{2-Cyclopentyl-5-[(5,7-dimethyl[1,2,4]triazolo[1,5-a]pyrimidin-2-yl)methyl]-4-hydroxy-6-oxo-3,6-dihydro-2H-pyran-2-yl}ethyl)phenyl]cyclopropanecarbonitrile]
6 nM	Cc1nn(C)c(Cl)c1CC1=C(O)CC(CCc2ccc(C(C)(C)C#N)c(F)c2)(C2CCCC2)OC1=O (stereo not shown) [A(96), 2-[4-(2-{5-[(5-Chloro-1,3-dimethyl-1H-pyrazol-4-yl)methyl]-2-cyclopentyl-4-hydroxy-6-oxo-3,6-dihydro-2H-pyran-2-yl}ethyl)-2-fluorophenyl]-2-methylpropanenitrile]
6 nM	CCc1cc(CCC2(C3CCCC3)CC(O)=C(Cc3nc4nc(C)cc(C)n4n3)C(=O)O2)ccc1NS(C)(=O)=O (stereo not shown) [A(104), N-[4-(2-{2-cyclopentyl-5-[(5,7-dimethyl[1,2,4]triazolo[1,5-a]pyrimidin-2-yl)methyl]-4-hydroxy-6-oxo-3,6dihydro-2H-pyran-2-yl}ethyl)-2-ethylphenyl]methanesulfonamide]
4 nM	CCc1cc(CCC2(C3CCCC3)CC(O)=C(Cc3nc4ncc(C)cn4n3)C(=O)O2)ccc1NS(C)(=O)=O (stereo not shown) [A(106), N-[4-(2-{2-cyclopentyl-4-hydroxy-5-[(6-methyl[1,2,4]triazolo[1,5-a]pyrimidin-2-yl)methyl]-6-oxo-3,6-dihydro-2H-pyran-2-yl}ethyl)-2-ethylphenyl]methanesulfonamide]
3 nM	CCc1cc(CCC2(C3CCCC3)CC(O)=C(Cc3nc4ncc(C)cn4n3)C(=O)O2)ccc1CC#N (stereo not shown) [A(103), [4-(2-{2-cyclopentyl-4-hydroxy-5-[(6-methyl[1,2,4]triazolo[1,5-a]pyrimidin-2-yl)methyl]-6-oxo-3,6-dihydro-2H-pyran-2-yl}ethyl)-2-ethylphenyl]acetonitrile]
